According to patent publication US20110129917A1, “CELL ISOLATION METHOD” (priority 2007, published 2011):

System: microorganisms in soil
Test: effect of cell enlargers upon microorganisms in rice paddy soil, observed under a fluorescent microscope after CFDA-AM staining
Assay type: cell-based
Conditions: three cell enlargers added together: nalidixic acid 80 μg/g of soil, pipemidic acid 40 μg/g, piromidic acid 40 μg/g; anaerobic, 30° C., 24 hours; comparison without enlargers showed only round or oval cells
Experimental: As a laboratory model of rice paddy soil where denitrification is active, a 10 mL vial bottle was filled with slightly less than 10 mL of soil (rice paddy soil from Tanashi Farm of the University of Tokyo), a selective substrate of denitrificans (sodium succinate, approximately 5 g/L) and sodium nitrate (approximately 5 g/L) and the gas phase was completely substituted with argon-acetylene. Culture was then carried out anaerobically at 30° C. […] A fluorescent dye CFDA-AM (final concentration 50 μM) was added to the cultured product and the product was observed under a fluorescent microscope (excited in blue, irradiated with blue light) (FIG. 3(b)). In combination, as a comparative example, the fluorescent dye was added and observation was carried out under a microscope with no cell enlargers added (FIG. 3(a)).

| SMILES | effect of cell enlargers upon microorganisms in soil (cell shape and size under the microscope) |
| --- | --- |
| CCn1cc(C(=O)O)c(=O)c2cnc(N3CCNCC3)nc21 [pipemidic acid] | elongated and larger cells were also observable |
| CCn1cc(C(=O)O)c(=O)c2cnc(N3CCCC3)nc21 [piromidic acid] | elongated and larger cells were also observable |
